# Laboratory results: publication PMC2586070 (Peptides, 2008)
# Where no end group is shown, it is not given here.
# Test system: blood-brain barrier (BBB)
# Assay type: in vivo, male CD-1 mice
compound,measurement,setting,value
triolein,enhancement of I-Ghr transport across the BBB,"triolein 7.2 mg/mouse iv with I-Ghr, 8 week old mice",over 70%
"I-Ghr: Human ghrelin radioactively labeled with 131I by the chloramine-T method, purified by reverse-phase HPLC (GSSFLSPEHQRVQQRKESKKPPAKLQPR; ends and bridges not checked; also: 131I radiolabel, site not given here; UniProt Q9UBU3 24-51, looked up)",effect of 48 h fasting on Ki of I-Ghr vs fed animals,"mouse, in vivo, iv",arithmetic increase
CNC[C@H](O)c1ccc(O)c(O)c1 [Epinephrine],effect on I-Ghr uptake across the BBB,"epinephrine 40 nmol/mouse in the iv injection, 8 week old mice",no effect
